Source: PMC4488747, “Inhibition of P-glycoprotein Gene Expression and Function Enhances Triptolide-induced Hepatotoxicity in Mice” (Scientific Reports, 2015)
Where two headings read alike, the source gives them in different places.

Columns and labels:
[1] = Triptolide plasma toxicokinetics in mice; assay type: in vivo; conditions: TP 1.0 mg/kg iv
Protocol: (§1) For TP plasma kinetic study and toxicological evaluation, mice were divided into four groups (n = 5 each) to collect blood and tissue samples: (1) normal + saline group; (2) 1.0 mg/kg TP + 15 nmol NC-siRNA group; (3) 1.0 mg/kg TP + 15 nmol mdr1a-siRNA group; (4) 1.0 mg/kg TP + 10 mg/kg tariquidar group. In order to avoid the complication caused by drug absorption or possible intestinal first-pass effect, TP and the inhibitor were intravenously administrated to mice. The siRNA group was intravenously injected with NC-siRNA or mdr1a-siRNA 2 days before TP dose. For TP + tariquidar group, the mice were received an intravenous tariquidar dose 20 min prior to the TP injection. Blood samples were collected at 2, 5, 10, 15, 30, 60 and 120 min after TP dosing. To assess the liver exposure of TP, liver tissue samples were collected from another set of mice at 5, 30, 60 and 120 min after dosing. Three TP groups were design for this experiment, including TP + NC-siRNA group, TP + mdr1a-siRNA group and TP + tariquidar group. The liver tissue samples were weighed and then homogenized in 10 volume (w:v) of ice-cold saline. The concentrations of TP in plasma and liver tissue were measured by a validated LC-MS/MS method. Prior to the above animal study, a preliminary experiment was performed to assess the possible differences in liver P-gp protein expression (Figure S1) and TP plasma kinetics between NC-siRNA treated mice and normal mice (with saline) (Figure S2 and supplemental Table 1). […] Therefore, NC-siRNA group was used as the control in the following animal study.
The TP in plasma and tissue samples was quantitatively analyzed by a published LC-MS/MS method. The method was slightly modified and validated for analysis of plasma and liver tissue samples. Plasma and tissue homogenate were pretreated with 3-fold volume of methanol-acetonitrile (1:1, v/v) containing 20 ng/ml propranolol to precipitate proteins, and then centrifuged at 4°C, 14,000 g for 10 min. The supernatant (10 μl) was injected into LC-MS/MS for analysis. An Aglient 6410B triple quadrupole mass spectrometer equipped with Agilent1290 Infinity UHPLC system (Agilent Technologies, Santa Clara, CA) was used. TP and propranolol (internal standard, IS) were eluted from an Agilent C18 column (dp = 3.5 μm, 2.1 × 50 mm, Agilent, MA) using a mobile phase gradient (A: water with 0.1% formic acid and 2.5 mM ammonium formate, B: acetonitrile with 0.1% formic acid). The gradient was run as: 0–2.5 min hold at 95% B; 2.5–3 min, a linear gradient to 10% B; 3–4 min hold at 10% B. Flow rate was 0.2 ml/min. TP and propranolol were detected in positive ion mode using single reaction monitoring: TP, m/z 378.1/360.1, IS, m/z 260.0/116.0. Under the above optimized condition, no significant endogenous interferences were detected at the peak regions for TP and IS in all the biological specimens. The calibration curves of TP were linear (r^2 > 0.99) over the concentration range of 1–1000 ng/ml. The lower limit of quantification was at 1 ng/ml. The intra and inter-day precisions (RSD) were all below 11% and the assay accuracies (RE) were in the range from 87% to 113%. The recovery was above 80% for both plasma and tissue samples.
Toxicokinetic parameters, including area under the plasma concentration-time curve (AUC), volume of distribution (Vd), clearance (CL), mean residence time (MRT) and terminal elimination half-life (t1/2), were calculated by non-compartmental analysis using WinNonlin 5.2 software (Pharsight Corporation, CA, USA). All the data were expressed as mean ± SD. Differences between groups were compared by Student’s t-test for analysis of unpaired data or one-way ANOVA. Statistical significance was accepted at P < 0.05.

[2] = test system: BALB/C mice; test: Serum ALT and AST (TP-induced hepatotoxicity) in mice; assay type: in vivo; conditions: TP 1 mg/kg iv + NC-siRNA, 24 h after TP
Protocol: as §1
At 24 h of TP treatment, blood and liver tissue samples were collected from the mice in plasma kinetic study. Serum ALT and AST levels were determined with a CL8000 automated biochemical analyzer (Shimadzu, Japan) after serum was separated by centrifugation at 900 g for 10 min. Liver tissue samples were divided into two parts, the first half was kept at −80 °C until MDA and SOD measurements using MDA and SOD assay kits (Nanjing Jiancheng Bioengineering Institute, Nanjing, China) according to the manufacturer’s instructions. The other half was fixed with 4% paraformaldehyde solution and then dehydrated, embedded in paraffin and sectioned at a thickness of 5 μm. Four paraffin sections from each mouse were dewaxed, rehydrated and stained with hematoxylin-eosin (HE) for overall morphological evaluation. The total protein concentration was quantified by the BCA assay. Bcl-2 and Bax proteins were measured by western blot.

[3] = test system: BALB/C mice; test: Hepatic MDA content and SOD activity in mice; assay type: in vivo; conditions: 24 h; for Hepatic MDA level, fold increase: significance vs normal group
Protocol: as §1
At 24 h of TP treatment, blood and liver tissue samples were collected from the mice in plasma kinetic study. Serum ALT and AST levels were determined with a CL8000 automated biochemical analyzer (Shimadzu, Japan) after serum was separated by centrifugation at 900 g for 10 min. […] The total protein concentration was quantified by the BCA assay. Bcl-2 and Bax proteins were measured by western blot.

[4] = test system: P-glycoprotein (P-gp); set-up: method as in PMID 24065861; conditions: ATPase assay with rat mdr1 membrane; cited from earlier work
[5] = test system: CYP reductase KO mice; set-up: method as in PMID 21596114; conditions: cited from earlier work
[6] = C57, mouse, iv, 1 mg/kg, 15 nmol NC-siRNA iv 2 days before (control)
[7] = C57, mouse, iv, 1 mg/kg, 15 nmol mdr1a-siRNA iv 2 days before
[8] = C57, mouse, iv, 1 mg/kg, with tariquidar 10 mg/kg iv, 20 min before TP, tariquidar 10 mg/kg iv 20 min prior
[9] = 15 nmol NC-siRNA iv 2 days before (control)
[10] = 15 nmol mdr1a-siRNA iv 2 days before

## CC(C)[C@]12O[C@H]1[C@@H]1O[C@]13[C@]1(O[C@H]1C[C@H]1C4=C(CC[C@@]13C)C(=O)OC4)[C@@H]2O [TP, Triptolide]
[1]; C57, mouse, 15 nmol NC-siRNA iv 2 days before (control)
  MRT: 20.4 ± 7.8 min
[1]; [6]
  AUC(0-t): 104 ± 9.6 ng·h/mL
  Vd: 4.8 ± 1.1 L/kg
  half-life: 20.4 ± 8.4 min
[1]; C57, mouse, iv, 1 mg/kg, 15 nmol NC-siRNA iv 2 days before (control), read-out: Cmax
  Cmax: 413 ± 74 ng/mL
[1]; [7]
  AUC(0-t): 154 ± 30.2 ng·h/mL
  Vd: 3.3 ± 0.7 L/kg
  half-life: 29.4 ± 13.8 min
[1]; C57, mouse, iv, 1 mg/kg, 15 nmol mdr1a-siRNA iv 2 days before, read-out: Cmax
  Cmax: 510 ± 94 ng/mL
[1]; [8]
  AUC(0-t): 146 ± 24.6 ng·h/mL
  Vd: 3.9 ± 1.3 L/kg
  half-life: 29.4 ± 13.2 min
[1]; C57, mouse, iv, 1 mg/kg, with tariquidar 10 mg/kg iv, 20 min before TP, tariquidar 10 mg/kg iv 20 min prior, read-out: Cmax
  Cmax: 472 ± 66.5 ng/mL
[1]; [9]
  CL: 573.84 ± 61.452 L/h/kg
  Cmax: 413.1 ± 74.2 ng/mL
[1]; [10]
  CL: 345.32 ± 72.006 L/h/kg
  Cmax: 509.7 ± 94.1 ng/mL
[1]; mouse, 15 nmol mdr1a-siRNA iv 2 days before
  MRT: 30.6 ± 13.8 min
[1]; mouse, with tariquidar 10 mg/kg iv, 20 min before TP, tariquidar 10 mg/kg iv 20 min prior
  MRT: 30 ± 13.2 min
[2]
  Serum ALT level, folds of the normal group: 4.2 folds
  Serum AST level, folds of the normal group: 5.4 folds
[3]; TP 1 mg/kg iv + mdr1a-siRNA
  Hepatic MDA level, fold increase: 1.6 fold
[3]; TP 1 mg/kg iv + tariquidar 10 mg/kg
  Hepatic MDA level, fold increase: 1.3 fold
[3]; all three TP groups, significant only with tariquidar or mdr1a-siRNA
  Hepatic SOD activity: reduction
[4]
  P-gp substrate identification: substrate
[5]; at 120 min
  Increase fold of TP hepatic exposure: about 2 fold
[5]
  Increase in AST level: about 2 fold
